Source: patent US20230011869A1 (Hoffmann-La Roche Inc., priority 2018, published 2023)
Where a name gives a salt, the structure may show the parent alone.

The compounds below were run on Acinetobacter baumannii ATCC17978 (assay: Antimicrobial susceptibility testing: 90% growth inhibitory concentration (IC90) determination, Iso-Sensitest broth). Conditions: 90% growth inhibitory concentration, Acinetobacter baumannii ATCC17978, Iso-Sensitest broth, OD 600 nm over 16 h; read-out: ATCC17978 IC90.
Format: cell-based
Method in brief: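 A. baumannii ATCC17978 grown in Iso-Sensitest broth across 10 compound concentrations at 35±2 °C.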

| IC90 | Structure (SMILES) |
| --- | --- |
| 150 nM | COc1ccc(-c2cnc3c(Nc4ccc(C(=O)N5CCC(CNC(C)=O)CC5)c(C)c4)nccn23)cc1 [Example 103, N-((1-(4-((3-(4-methoxyphenyl)imidazo[1,2-a]pyrazin-8-yl)amino)-2-methylbenzoyl)piperidin-4-yl)methyl)acetamide] |
| 3600 nM | Cc1cc(Nc2nccn3c(-c4ccc(OC(C)(C)C#N)c(F)c4F)cnc23)ccc1C(=O)N1CCC(CN)CC1 [Example 105, 2-[4-[8-[4-[4-(aminomethyl)piperidine-1-carbonyl]-3-methyl-anilino]imidazo[1,2-a]pyrazin-3-yl]-2,3-difluoro-phenoxy]-2-methyl-propanenitrile; formic acid] |
| 250 nM | COc1cc(F)c(-c2cnc3c(Nc4ccc(C(=O)N5CCC(CN)CC5)c(C)c4)nccn23)cc1F [Example 106, (4-(aminomethyl)piperidin-1-yl)(4-((3-(2,5-difluoro-4-methoxyphenyl)imidazo[1,2-a]pyrazin-8-yl)amino)-2-methylphenyl)methanone] |
| 290 nM | COc1cc(F)c(-c2cnc3c(Nc4ccc(C(=O)N5CCC(CN)CC5)c(C)c4)nccn23)cc1Cl [Example 107, (4-(aminomethyl)piperidin-1-yl)(4-((3-(5-chloro-2-fluoro-4-methoxyphenyl)imidazo[1,2-a]pyrazin-8-yl)amino)-2-methylphenyl)methanone] |
| 1300 nM | Cc1cc(Nc2nccn3c(-c4ccc(Cl)cc4Cl)cnc23)ccc1C(=O)N1CCC(CN)CC1 [Example 108, (4-(aminomethyl)piperidin-1-yl)(4-((3-(2,4-dichlorophenyl)imidazo[1,2-a]pyrazin-8-yl)amino)-2-methylphenyl)methanone] |
| 510 nM | COc1ccc(-c2cnc3c(Nc4ccc(C(=O)N5CCC(CN)CC5)c(C)c4)nccn23)c(Cl)c1 [Example 109, (4-(aminomethyl)piperidin-1-yl)(4-((3-(2-chloro-4-methoxyphenyl)imidazo[1,2-a]pyrazin-8-yl)amino)-2-methylphenyl)methanone] |
| 420 nM | CCOc1ccc(-c2cnc3c(Nc4ccc(C(=O)N5CCC(CN)CC5)c(C)c4)nccn23)c(F)c1Cl [Example 110, (4-(aminomethyl)piperidin-1-yl)(4-((3-(3-chloro-4-ethoxy-2-fluorophenyl)imidazo[1,2-a]pyrazin-8-yl)amino)-2-methylphenyl)methanone formate] |
| 4100 nM | Cc1cc(Nc2nccn3c(-c4cc(F)c(F)c(F)c4)cnc23)ccc1C(=O)N1CCC(CN)CC1 [Example 111, (4-(aminomethyl)piperidin-1-yl)(2-methyl-4-((3-(3,4,5-trifluorophenyl)imidazo[1,2-a]pyrazin-8-yl)amino)phenyl)methanone] |
| 180 nM | CNCCNC(=O)C1CCN(C(=O)c2ccc(Nc3nccn4c(-c5ccc(OC)c(Cl)c5)cnc34)cc2C)CC1 [Example 112, 1-(4-((3-(3-chloro-4-methoxyphenyl)imidazo[1,2-a]pyrazin-8-yl)amino)-2-methylbenzoyl)-N-(2-(methylamino)ethyl)piperidine-4-carboxamide hydrochloride] |
| 280 nM | COc1ccc(-c2cnc3c(Nc4ccc(C(=O)N5CCC(CN)CC5)c(C)c4)nccn23)c(Cl)c1Cl [Example 113, [4-(aminomethyl)-1-piperidyl]-[4-[[3-(2,3-dichloro-4-methoxy-phenyl)imidazo[1,2-a]pyrazin-8-yl]amino]-2-methyl-phenyl]methanone formate] |
| 410 nM | Cc1cc(Nc2nccn3c(-c4ccc(OCC5CC5C#N)c(F)c4F)cnc23)ccc1C(=O)N1CCC(CN)CC1 (stereo not shown) [Example 114, 2-[[4-[8-[4-[4-(aminomethyl)piperidine-1-carbonyl]-3-methyl-anilino]imidazo[1,2-a]pyrazin-3-yl]-2,3-difluoro-phenoxy]methyl]cyclopropanecarbonitrile formate] |
| 400 nM | Cc1cc(Nc2nccn3c(-c4ccc(OC5(C#N)CC5)c(F)c4F)cnc23)ccc1C(=O)N1CCC(CN)CC1 [Example 115, 1-[4-[8-[4-[4-(aminomethyl)piperidine-1-carbonyl]-3-methyl-anilino]imidazo[1,2-a]pyrazin-3-yl]-2,3-difluoro-phenoxy]cyclopropanecarbonitrile formate] |
| 500 nM | CSc1ccc(-c2cnc3c(Nc4ccc(C(=O)N5CCC(CN)CC5)c(C)c4)nccn23)cc1F [Example 116, [4-(aminomethyl)-1-piperidyl]-[4-[[3-(3-fluoro-4-methylsulfanyl-phenyl)imidazo[1,2-a]pyrazin-8-yl]amino]-2-methyl-phenyl]methanone formate] |
| 540 nM | Cc1cc(Nc2nccn3c(-c4ccc(OC5CC5)c(Cl)c4)cnc23)ccc1C(=O)N1CCC(CN)CC1 [Example 117, [4-(aminomethyl)-1-piperidyl]-[4-[[3-[3-chloro-4-(cyclopropoxy)phenyl]imidazo[1,2-a]pyrazin-8-yl]amino]-2-methyl-phenyl]methanone formate] |
| 940 nM | Cc1cc(Nc2nccn3c(-c4ccc(OCC5CC5)c(F)c4)cnc23)ccc1C(=O)N1CCC(CN)CC1 [Example 118, (4-(aminomethyl)piperidin-1-yl)(4-((3-(4-(cyclopropylmethoxy)-3-fluorophenyl)imidazo[1,2-a]pyrazin-8-yl)amino)-2-methylphenyl)methanone] |
| 400 nM | Cc1cc(Nc2nccn3c(-c4ccc(OC(C)C#N)c(F)c4F)cnc23)ccc1C(=O)N1CCC(CN)CC1 (stereo not shown) [Example 119, 2-[4-[8-[4-[4-(aminomethyl)piperidine-1-carbonyl]-3-methyl-anilino]imidazo[1,2-a]pyrazin-3-yl]-2,3-difluoro-phenoxy]propanenitrile;2,2,2-trifluoroacetic acid] |
| 1000 nM | Cc1cc(Nc2nccn3c(-c4ccc(OCCCC#N)c(F)c4F)cnc23)ccc1C(=O)N1CCC(CN)CC1 [Example 120, 4-(4-(8-((4-(4-(aminomethyl)piperidine-1-carbonyl)-3-methylphenyl)amino)imidazo[1,2-a]pyrazin-3-yl)-2,3-difluorophenoxy)butanenitrile] |
| 320 nM | Cc1cc(Nc2nccn3c(-c4ccc(Oc5ccccn5)c(F)c4F)cnc23)ccc1C(=O)N1CCC(CN)CC1 [Example 122, [4-(aminomethyl)-1-piperidyl]-[4-[[3-[2,3-difluoro-4-(2-pyridyloxy)phenyl]imidazo[1,2-a]pyrazin-8-yl]amino]-2-methyl-phenyl]methanone formate] |
| 760 nM | Cc1cc(Nc2nccn3c(-c4ccc(Oc5ccncc5)c(F)c4F)cnc23)ccc1C(=O)N1CCC(CN)CC1 [Example 123, [4-(aminomethyl)-1-piperidyl]-[4-[[3-[2,3-difluoro-4-(4-pyridyloxy)phenyl]imidazo[1,2-a]pyrazin-8-yl]amino]-2-methyl-phenyl]methanone] |
| 900 nM | Cc1cc(Nc2nccn3c(-c4ccc(OCc5cccnc5)c(F)c4F)cnc23)ccc1C(=O)N1CCC(CN)CC1 [Example 124, [4-(aminomethyl)-1-piperidyl]-[4-[[3-[2,3-difluoro-4-(3-pyridylmethoxy)phenyl]imidazo[1,2-a]pyrazin-8-yl]amino]-2-methyl-phenyl]methanone formate] |
| 1700 nM | Cc1cc(Nc2nccn3c(-c4ccc(OCc5ccccn5)c(F)c4F)cnc23)ccc1C(=O)N1CCC(CN)CC1 [Example 125, [4-(aminomethyl)-1-piperidyl]-[4-[[3-[2,3-difluoro-4-(2-pyridylmethoxy)phenyl]imidazo[1,2-a]pyrazin-8-yl]amino]-2-methyl-phenyl]methanone; formic acid] |
| 3600 nM | Cc1cc(Nc2nccn3c(-c4ccc(OCc5ccccc5)c(F)c4F)cnc23)ccc1C(=O)N1CCC(CN)CC1 [Example 126, [4-(aminomethyl)-1-piperidyl]-[4-[[3-(4-benzyloxy-2,3-difluoro-phenyl)imidazo[1,2-a]pyrazin-8-yl]amino]-2-methyl-phenyl]methanone formate] |
| 910 nM | Cc1cc(Nc2nccn3c(-c4ccc(OCc5ccncc5)c(F)c4F)cnc23)ccc1C(=O)N1CCC(CN)CC1 [Example 127, [4-(aminomethyl)-1-piperidyl]-[4-[[3-[2,3-difluoro-4-(4-pyridylmethoxy)phenyl]imidazo[1,2-a]pyrazin-8-yl]amino]-2-methyl-phenyl]methanone formate] |
| 910 nM | Cc1cc(Nc2nccn3c(-c4ccc(OC(F)F)cc4)cnc23)ccc1C(=O)N1CCNCC1 [Example 129, [4-[[3-[4-(difluoromethoxy)phenyl]imidazo[1,2-a]pyrazin-8-yl]amino]-2-methyl-phenyl]-piperazin-1-yl-methanone hydrochloride] |
| 430 nM | COc1ccc(-c2cnc3c(Nc4ccc(C(=O)N5CCNCC5)c(C)c4)nccn23)cc1F [Example 130, [4-[[3-(3-fluoro-4-methoxy-phenyl)imidazo[1,2-a]pyrazin-8-yl]amino]-2-methyl-phenyl]-piperazin-1-yl-methanone hydrochloride] |
| 300 nM | Cc1cc(Nc2nccn3c(-c4ccc(OC(F)F)cc4)cnc23)ccc1C(=O)N1CCN(C(=O)N2CCOC(CN(C)C)C2)CC1 (stereo not shown) [Example 132, [4-[[3-[4-(difluoromethoxy)phenyl]imidazo[1,2-a]pyrazin-8-yl]amino]-2-methyl-phenyl]-[4-[2-[(dimethylamino)methyl]morpholine-4-carbonyl]piperazin-1-yl]methanone] |

Same assay, conditions: Acinetobacter baumannii, ATCC17978, 16 h, read-out: ATCC17978 IC90, 90% growth inhibitory concentration, Acinetobacter baumannii ATCC17978, Iso-Sensitest broth, OD 600 nm over 16 h

| Structure (SMILES) | IC90 |
| --- | --- |
| COc1ccc(-c2cnc3c(Nc4ccc(C(=O)N5CCC(CN)CC5)c(C)c4)nccn23)c(Cl)c1F [Example 104, [4-(aminomethyl)-1-piperidyl]-[4-[[3-(2-chloro-3-fluoro-4-methoxy-phenyl)imidazo[1,2-a]pyrazin-8-yl]amino]-2-methyl-phenyl]methanone hydrochloride] | 180 nM |
| Cc1cc(Nc2nccn3c(-c4ccc(OC(F)F)cc4)cnc23)ccc1C(=O)N1CCN(C(=O)N2CCN(C)CC2)CC1 [Example 128, [4-[[3-[4-(difluoromethoxy)phenyl]imidazo[1,2-a]pyrazin-8-yl]amino]-2-methyl-phenyl]-[4-(4-methylpiperazine-1-carbonyl)piperazin-1-yl]methanone formate] | 190 nM |
